For data set [1] the following is noted: Göttingen minipig; cited from earlier work.
Data set [2] in a line: Fraction unbound in 20-fold diluted brain homogenate, equilibrium dialysis. To be noted: for fraction unbound at 5 h, 1 μM: Göttingen, minipig, 20-fold diluted brain homogenate, pH 7.4; for Predicted fu (%) Brain (D = 20): calculated with Eq. 2 from fu measured in 100% matrices (ref 20), dilution factor 20.
Data set [3] relates to P-gp (human MDR1). The data set can be described thus: in vitro. Conditions: dog; for Papp B→A at 60 min, 0.5 μM / efflux ratio at 60 min, 0.5 μM / Papp A→B at 60 min, 0.5 μM: MDCK-MDR1, pH 7.4.
The subject of data set [4] is P-gp (human MDR1). In words: Equilibrium distribution study (in vitro Kp,brain / Kp,uu,brain) across MDCKII-MDR1 cells, BSA apical, brain homogenate basolateral, Uni-L and Bi-L. Conditions: dog; for Kp at 29 h, 1 μM: brain homogenate/BSA ratio.
Data set [5] addresses Bovine Serum Albumin (BSA) (Bos taurus, UniProt P02769). In words: Fraction unbound in 35 μM BSA, equilibrium dialysis. Conditions: for fraction unbound at 5 h, 1 μM: bovine, 35 μM BSA; for Predicted fu (%) BSA 35 μM (D = 20): calculated with Eq. 2 from fu measured in 100% matrices (ref 20), dilution factor 20.
[6] abbreviates: MDCK-MDR1, pH 7.5, in vitro determined Kp,brain Bi-L, Bi-L (compound loaded both sides), 29 h.
The mark [7] stands for this setting: MDCK-MDR1, pH 7.5, in vitro determined Kp,brain Uni-L, Uni-L (compound loaded apically in BSA), 29 h.
Setting [8] is: pH 7.5, Recovery Bi-L, mass balance Eq. 7, Bi-L, 29 h, % printed.
[9] abbreviates: pH 7.5, Recovery Uni-L, mass balance Eq. 6, Uni-L, 29 h, % printed.
The mark [10] stands for this setting: pH 7.5, assay recovery, equilibrium distribution experiment, setup (Uni-L/Bi-L) not given.

Bovine Serum Albumin (BSA), sequence (P02769 25-607): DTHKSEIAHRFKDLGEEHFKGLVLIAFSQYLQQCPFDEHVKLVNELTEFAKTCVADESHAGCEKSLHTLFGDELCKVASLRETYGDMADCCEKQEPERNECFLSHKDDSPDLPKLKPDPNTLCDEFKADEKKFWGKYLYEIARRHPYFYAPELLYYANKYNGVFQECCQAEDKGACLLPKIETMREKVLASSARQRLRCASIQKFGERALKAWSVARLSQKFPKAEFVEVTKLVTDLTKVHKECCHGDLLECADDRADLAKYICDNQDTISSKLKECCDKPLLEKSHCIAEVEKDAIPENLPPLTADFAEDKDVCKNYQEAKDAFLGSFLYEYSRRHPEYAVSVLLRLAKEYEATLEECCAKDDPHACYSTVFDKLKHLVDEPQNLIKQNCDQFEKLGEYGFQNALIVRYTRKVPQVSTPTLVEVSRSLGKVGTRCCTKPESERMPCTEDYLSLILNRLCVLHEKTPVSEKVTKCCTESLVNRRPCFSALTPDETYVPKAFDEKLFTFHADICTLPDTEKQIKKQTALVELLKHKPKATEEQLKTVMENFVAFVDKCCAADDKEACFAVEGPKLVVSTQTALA

Turning to `O=C(c1ccc(F)cc1)C1CCN(CCn2c(=S)[nH]c3ccccc3c2=O)CC1` [Altanserin], the “Kp,uu,brain in vivo” value in data set [1] is reported as 0.85. Also, the fraction unbound at 5 h, 1 μM was found to be 0.229 ± 0.014 in data set [2] and 0.451 ± 0.035 in data set [5]. Moreover, in data set [2], the “Predicted fu (%) Brain (D = 20)” value is 22.1%. In addition, in the data set with P-gp (human MDR1) [3], the Papp B→A at 60 min, 0.5 μM was 3.4 ± 0.3 ×10⁻⁶ cm/s. Also, the efflux ratio at 60 min, 0.5 μM with P-gp (human MDR1) [3] was 1.1. Further, the Kp at 29 h, 1 μM was 1.49 in the data set with P-gp (human MDR1) [4] (setting [6]) and 1.48 in the data set on P-gp (human MDR1) [4] (setting [7]). Also, the results for the recovery at 29 h, 1 μM in the data set with P-gp (human MDR1) [4] (setting [8]), in the data set on P-gp (human MDR1) [4] (setting [9]) and in the data set with P-gp (human MDR1) [4] (setting [10]) were 17%, 18% and about 20%, respectively. In addition, in data set [5], the “Predicted fu (%) BSA 35 μM (D = 20)” value is recorded as 26.8%.
Molecule `O=C1CC2(CCCC2)CC(=O)N1CCCCN1CCN(c2ncccn2)CC1` [Buspirone, buspirone] came in with a Papp B→A at 60 min, 0.5 μM in the data set on P-gp (human MDR1) [3] of 20 ± 3 ×10⁻⁶ cm/s. In addition, the recovery at 29 h, 1 μM with P-gp (human MDR1) [4] (setting [8]) stood at 71%; in the data set with P-gp (human MDR1) [4] (setting [9]), 76%.
Take `CN/C(=N/CCSCc1nc[nH]c1C)NC#N` [Cimetidine, cimetidine]: the “Kp,uu,brain in vivo” value in data set [1] is listed as 0.02. The fraction unbound at 5 h, 1 μM was 0.938 ± 0.05 in data set [2] and over 1 in data set [5]. The “Predicted fu (%) Brain (D = 20)” value in data set [2] is on record as 95.6%. For the same molecule, in the data set with P-gp (human MDR1) [3], the Papp A→B at 60 min, 0.5 μM was under 1 ×10⁻⁶ cm/s. Moreover, the apparent permeability from basolateral to apical (Papp B→A) at 60 min, 0.5 μM with P-gp (human MDR1) [3] came to 2.5 ± 0.2 ×10⁻⁶ cm/s. The figures for the Kp at 29 h, 1 μM in the data set on P-gp (human MDR1) [4] (setting [6]) and with P-gp (human MDR1) [4] (setting [7]) were 0.6 and 0.19, respectively. Moreover, the recovery at 29 h, 1 μM is 78% with P-gp (human MDR1) [4] (setting [8]) and 73% in the data set with P-gp (human MDR1) [4] (setting [9]). The “Predicted fu (%) BSA 35 μM (D = 20)” value in data set [5] is reported as 99.2%.
Regarding `CN(C)CCCC1(c2ccc(F)cc2)OCc2cc(C#N)ccc21` (stereo not drawn) [Citalopram, citalopram], in data set [1], the “Kp,uu,brain in vivo” value is reported as 0.90. For the same molecule, the fraction unbound at 5 h, 1 μM was 0.513 ± 0.066 in data set [2] and 0.973 ± 0.027 in data set [5]. Besides, the “Predicted fu (%) Brain (D = 20)” value in data set [2] was 47.9%. Also, in the data set with P-gp (human MDR1) [3], the Papp B→A at 60 min, 0.5 μM amounted to 7.7 ± 0.3 ×10⁻⁶ cm/s. Besides, the efflux ratio at 60 min, 0.5 μM in the data set with P-gp (human MDR1) [3] was found to be 1.7. Besides, the Kp at 29 h, 1 μM in the data set on P-gp (human MDR1) [4] (setting [6]) and with P-gp (human MDR1) [4] (setting [7]) was 1.5 throughout. In addition, the recovery at 29 h, 1 μM in the data set on P-gp (human MDR1) [4] (setting [8]) was determined as 67%; in the data set with P-gp (human MDR1) [4] (setting [9]) it was 73%. Moreover, the “Predicted fu (%) BSA 35 μM (D = 20)” value in data set [5] is recorded as 96.0%.
Take `CN(C)CCC=C1c2ccccc2COc2ccccc21` [Doxepin, doxepin]: in data set [2], the fraction unbound at 5 h, 1 μM amounted to 0.248 ± 0.05 and the “Predicted fu (%) Brain (D = 20)” value is 33.0%. In the data set with P-gp (human MDR1) [3], the Papp A→B at 60 min, 0.5 μM was 2 ± 0.1 ×10⁻⁶ cm/s; the Papp B→A at 60 min, 0.5 μM was determined as 2.2 ± 0.1 ×10⁻⁶ cm/s; the efflux ratio at 60 min, 0.5 μM came out at 1.1. The recovery at 60 min, 0.5 μM with P-gp (human MDR1) [3] (MDCKII-MDR1 cell monolayers (transfected with human MDR1), pH 7.4) was about 50%. For the same molecule, the Kp at 29 h, 1 μM with P-gp (human MDR1) [4] (setting [6]) worked out at 2.2. Moreover, the Kp at 29 h, 1 μM in the data set on P-gp (human MDR1) [4] (setting [7]) amounted to 2.2. In addition, in the data set on P-gp (human MDR1) [4] (setting [8]), the recovery at 29 h, 1 μM was 54%. The recovery at 29 h, 1 μM in the data set with P-gp (human MDR1) [4] (setting [9]) was found to be 59%. The molecule further showed a recovery at 29 h, 1 μM with P-gp (human MDR1) [4] (setting [10]) of about 50%. Moreover, in data set [5], the fraction unbound at 5 h, 1 μM amounted to 0.922 ± 0.029 and the “Predicted fu (%) BSA 35 μM (D = 20)” value is 87.1%.
For `CNCCC(Oc1ccc(C(F)(F)F)cc1)c1ccccc1` (stereo not drawn) [Fluoxetine, fluoxetine], in data set [2], the fraction unbound at 5 h, 1 μM was found to be 0.052 ± 0.005 and the “Predicted fu (%) Brain (D = 20)” value is 5.7%. In addition, in data set [5], the fraction unbound at 5 h, 1 μM is 0.66 ± 0.032 and the “Predicted fu (%) BSA 35 μM (D = 20)” value is 70.6%.
